The subject of series [1] is root-knot nematode, Meloidogyne incognita var. acrita. The experiment in a line: Nematocide Test. Note: key: 1: severe galling, equal to untreated plants; 2: moderate galling; 3: light galling; 4: very light galling; 5: no galling, perfect control. The class given is in vivo. The note with it: 3.33 m.g. per jar; cucumber, approximately 3 weeks. How it is done:
The test organism used was the infective migratory larvae of the root-knot nematode, Meloidogyne incognita var. acrita, reared in the greenhouse on roots of cucumber plants. Infected plants were removed from the culture, and the roots are chopped very finely. A small amount of this inoculum was added to a pint jar containing approximately 180 cc. of soil. The jars were capped and incubated for one week at room temperature. During this period eggs of the nematode were hatched, and the larval forms migrated into the soil.
Ten ml. of the test formulation were added to each of the two jars for each dosage tested. Following the addition of chemical, the jars were capped, and the contents thoroughly mixed on a ball mill for 5 minutes.
The test compounds were formulated by a standard procedure of solution in acetone addition of an emulsifier, and dilution with water. Primary screening tests were conducted at 3.33 m.g. of the test compound per jar.
The jars were left capped at room temperature for a period of 48 hours, and the contents then transferred to 3 inch pots. Subsequently, the pots were seeded to cucumber as an indicator crop and placed in the greenhouse where they were cared for in the normal fashion for approximately 3 weeks.
The cucumber plants were then taken from the pots, the soil removed from the roots; and the amount of galling visually rated.
In the test for activity against nematodes (nem) activity was rated as follows: […]

The nature of series [2]: Mammalian Toxicity, peroral toxicity to rat. The class given is in vivo. The note with it: in vivo, po, read-out: A.O. Rat LD50. How it is done: Certain compounds were also evaluated to determine their peroral toxicity to mammals by conventional methods. The representative animal selected for this experiment was the rat.
For the next series, the system named is Soy. The experiment in a line: Phytotoxicity Test, soy. The following applies: 2500 ppm spray, ten days.
Another series deals with Bean. The experiment in a line: Phytotoxicity Test, bean. The note with it: 2500 ppm spray, ten days.
The next series relates to Corn. Nature of the series: Phytotoxicity Test, corn. The following applies: 2500 ppm spray, ten days.
Another series concerns Tom. Nature of the series: Phytotoxicity Test, tomato. The note with it: 2500 ppm spray, ten days.
A further series has as its system Cotton. Nature of the series: Phytotoxicity Test, cotton. The following applies: 2500 ppm spray, ten days.

16 molecules from patent US4551472A, “Unsymmetrical bis-carbamate compounds” (priority 1984, dated 1985) can be followed below.

Procedure for Bean: (§1) Experiments were also conducted to determine the phytotoxicity of representative compounds with respect to healthy fresh plants. […] The test plants were sprayed in accordance with the procedure described above for the Mite Foliage Spray Test so as to deliver approximately 100 milliliters of test solution to the leaves of each plant tested. The sprayed plants and controls were set aside for approximately one hour to allow the foliage to dry and were then placed in the greenhouse. After ten days the plants were visually inspected to determine the extent of foliage injury. A rating of 1 indicates no perceptible injury; 5 indicates the plant was dead and ratings of 2, 3 and 4 indicate intermediate degrees of injury based upon the number and extent to which leaves were injured.
Procedure for Corn: as §1
Procedure for Cotton: as §1
Procedure for Soy: as §1
Procedure for Tom: as §1

By LD50 is commonly meant the dose expected to kill half of the subjects tested. Take `CSC(C)=NOC(=O)N(C)SN(C)C(=O)ON=C1CSCCS1` [Example II]: the “Biological Activity: Nem (nematode, galling rating)” value (shortened to “Biological Activity: Nem”) in series [1] is recorded as 5. The LD50 in series [2] is 190 mg/kg. Besides, the “Phytotoxicity: Soy” value in the series on Soy was 1. The “Phytotoxicity: Bean” value in the series on Bean is recorded as 1. In addition, the “Phytotoxicity: Corn” value in the series with Corn is 1. In the series on Tom, the “Phytotoxicity: Tom” value was found to be 1. In addition, the “Phytotoxicity: Cotton” value in the series with Cotton was 1.
`CSC(C)=NOC(=O)N(C)SN(C)C(=O)Oc1cccc2c1OC(C)(C)C2` [Example V, N-[1-Methylthioacetaldehyde O-(N-methylcarbamoyl)oxime]N-[2,2-dimethyl-2,3-dihydro-7-(N-methylcarbamoyloxy)benzofuran]sulfide]: the “Biological Activity: Nem” value in series [1] was determined as 5. Further, the LD50 in series [2] came out at 15.9 mg/kg. For the same molecule, in the series on Soy, the “Phytotoxicity: Soy” value stood at 2. The “Phytotoxicity: Bean” value with Bean was found to be 2. The “Phytotoxicity: Corn” value in the series with Corn amounted to 1. Besides, in the series on Tom, the “Phytotoxicity: Tom” value stood at 2. Besides, the “Phytotoxicity: Cotton” value in the series on Cotton turned out to be 2.
Take `CSC(C)(C)C=NOC(=O)N(C)SN(C)C(=O)Oc1cccc2ccccc12` [Example VI, N-[2-Methylthio-2-methylpropionaldehyde O-(N-methylcarbamoyl)oxime]N-[1-(N-methylcarbamoyloxy)naphthalene]sulfide]: the “Biological Activity: Nem” value in series [1] came to 4. In addition, the LD50 in series [2] is 2.97 mg/kg. For the same molecule, in the series on Soy, the “Phytotoxicity: Soy” value worked out at 1. The “Phytotoxicity: Bean” value with Bean is 1. Besides, the “Phytotoxicity: Corn” value with Corn worked out at 1. In addition, the “Phytotoxicity: Tom” value in the series on Tom is on record as 1. The “Phytotoxicity: Cotton” value with Cotton is 1.
As to `CSC(C)=NOC(=O)N(C)SN(C)C(=O)Oc1ccc(C(C)(C)C)cc1` [IX, N-[1-Methylthioacetaldehyde O-(N-methylcarbamoyl)oxime]N-[4-tert-butylphenyl-(N-methylcarbamoyloxy)]sulfide], in series [1], the “Biological Activity: Nem” value is on record as 3. Also, the LD50 in series [2] stood at 226 mg/kg. The “Phytotoxicity: Soy” value in the series with Soy is given as 1. Further, the “Phytotoxicity: Bean” value with Bean worked out at 1. The “Phytotoxicity: Corn” value with Corn stood at 1. In the series with Tom, the “Phytotoxicity: Tom” value is 1. In the series with Cotton, the “Phytotoxicity: Cotton” value came to 1.
On to `CSC(C)=NOC(=O)N(C)SN(C)C(=O)Oc1cccc2ccccc12` [VII, N-[1-Methylthioacetaldehyde O-(N-methylcarbamoyl)oxime]N-[1-naphthylmethylcarbamate]sulfide], for which, in series [1], the “Biological Activity: Nem” value is recorded as 4. The 50% lethal dose (LD50) in series [2] worked out at 160 mg/kg. In addition, the “Phytotoxicity: Soy” value in the series on Soy stood at 2. For the same molecule, the “Phytotoxicity: Bean” value in the series with Bean is listed as 1. The “Phytotoxicity: Corn” value with Corn was 1. Further, the “Phytotoxicity: Tom” value in the series on Tom is 1. Also, the “Phytotoxicity: Cotton” value in the series with Cotton was 2.
Take `CSC(C)=NOC(=O)N(C)SN(C)C(=O)Oc1ccc(C(C)C)cc1` [VIII, N-[1-Methylthioacetaldehyde O-(N-methylcarbamoyl)oxime]N-[4-isopropylphenyl-(N-methylcarbamoyloxy)]sulfide]: in series [1], the “Biological Activity: Nem” value is recorded as 4. Further, the LD50 in series [2] was 160 mg/kg. Further, in the series with Soy, the “Phytotoxicity: Soy” value was 1. The “Phytotoxicity: Bean” value in the series on Bean is listed as 1. In addition, the “Phytotoxicity: Corn” value in the series on Corn turned out to be 1. Also, the “Phytotoxicity: Tom” value in the series on Tom was 1. In addition, in the series on Cotton, the “Phytotoxicity: Cotton” value is 1.
`CSC(C)=NOC(=O)N(C)SN(C)C(=O)Oc1ccc([N+](=O)[O-])cc1` [XII, N-[1-Methylthioacetaldehyde O-(N-methylcarbamoyl)oxime]N-[1-(N-methylcarbamoyloxy)-4-nitrobenzene]sulfide]: the “Biological Activity: Nem” value in series [1] was 1. The median lethal dose (LD50) in series [2] turned out to be 453 mg/kg. Moreover, in the series with Soy, the “Phytotoxicity: Soy” value was found to be 1. In addition, in the series on Bean, the “Phytotoxicity: Bean” value is listed as 1. Also, the “Phytotoxicity: Corn” value with Corn was determined as 1. Moreover, the “Phytotoxicity: Tom” value with Tom was determined as 1. Further, the “Phytotoxicity: Cotton” value in the series on Cotton is given as 1.
In the case of `CCOC(=O)C(=NOC(=O)N(C)SN(C)C(=O)ON=C(C)SC)SC` [XIII, N-[1-Methylthioacetaldehyde O-(N-methylcarbamoyl)oxime]N-[1-methylthio-1-ethoxycarbonylformaldehyde O-(N-methylcarbamoyl)oxime]sulfide], the “Biological Activity: Nem” value in series [1] was 3. Also, the LD50 in series [2] was 160 mg/kg. Also, in the series with Soy, the “Phytotoxicity: Soy” value amounted to 2. For the same molecule, the “Phytotoxicity: Bean” value in the series with Bean was 1. In the series with Corn, the “Phytotoxicity: Corn” value is reported as 1. Also, the “Phytotoxicity: Tom” value with Tom turned out to be 1. Moreover, the “Phytotoxicity: Cotton” value with Cotton was determined as 1.
As to `CSC(C)=NOC(=O)N(C)SN(C)C(=O)Oc1cccc2c1CCCC2` [XIV, N-[1-Methylthioacetaldehyde O-(N-methylcarbamoyl)oxime]N-[1-(N-methylcarbamoyloxy)-5,6,7,8-tetrahydronaphthalene]sulfide], the “Biological Activity: Nem” value in series [1] was 4. In series [2], the median lethal dose (LD50) came to 285 mg/kg. For the same molecule, the “Phytotoxicity: Soy” value in the series on Soy is given as 1. Also, the “Phytotoxicity: Bean” value with Bean worked out at 1. Moreover, the “Phytotoxicity: Corn” value in the series with Corn is 1. For the same molecule, in the series with Tom, the “Phytotoxicity: Tom” value was determined as 1. The “Phytotoxicity: Cotton” value with Cotton was determined as 1.
Turning to `CSC(C)=NOC(=O)N(C)SN(C)C(=O)Oc1ccc(SC)c(C)c1` [XV, N-[1-Methylthioacetaldehyde O-(N-methylcarbamoyl)oxime]N-[O-(N-methylcarbamoyl)-4-methylthio-3-methylphenyl]sulfide], in series [1], the “Biological Activity: Nem” value is recorded as 4. Besides, the LD50 in series [2] was determined as 40 mg/kg. Moreover, the “Phytotoxicity: Soy” value in the series with Soy was 1. The “Phytotoxicity: Bean” value with Bean came out at 1. In addition, in the series with Corn, the “Phytotoxicity: Corn” value amounted to 1. Further, the “Phytotoxicity: Tom” value in the series on Tom came to 1. Also, in the series on Cotton, the “Phytotoxicity: Cotton” value was 1.
Regarding `COC(=O)Nc1ccc(OC(=O)N(C)SN(C)C(=O)ON=C(C)SC)cc1C(C)C` [XVI, N-[1-Methylthioacetaldehyde O-(N-methylcarbamoyl)oxime]N-[4-methoxycarbonylamino-(N-methylcarbamate)-3-isopropylphenyl]sulfide], the “Biological Activity: Nem” value in series [1] stood at 4. In series [2], the LD50 was found to be 28.3 mg/kg. Moreover, in the series with Soy, the “Phytotoxicity: Soy” value is 1. Further, in the series with Bean, the “Phytotoxicity: Bean” value was determined as 1. In the series on Corn, the “Phytotoxicity: Corn” value is on record as 1. In the series on Tom, the “Phytotoxicity: Tom” value was 1. Further, the “Phytotoxicity: Cotton” value with Cotton came to 1.
With `CSC(C)=NOC(=O)N(C)SN(C)C(=O)Oc1cc(C)c(C)c(C)c1` [XVIII, N-[1-Methylthioacetaldehyde O-(N-methylcarbamoyl)oxime]N-[3,4,5-trimethylphenyl-(N-methylcarbamoyloxy)]sulfide], the “Biological Activity: Nem” value in series [1] worked out at 4. Moreover, in series [2], the LD50 was found to be 95.1 mg/kg. Besides, in the series with Soy, the “Phytotoxicity: Soy” value is listed as 1. In addition, in the series with Bean, the “Phytotoxicity: Bean” value came to 1. Also, in the series on Corn, the “Phytotoxicity: Corn” value worked out at 1. For the same molecule, in the series on Tom, the “Phytotoxicity: Tom” value is reported as 1. Also, the “Phytotoxicity: Cotton” value with Cotton was 1.
With `CN(SN(C)C(=O)Oc1cccc2ccccc12)C(=O)ON=C1CSCCS1` [XXII, N-[2-O-(N-methylcarbamoyl)oximino-1,4-dithiane]N-[1-naphthyl-(N-methylcarbamoyloxy)]sulfide], the “Biological Activity: Nem” value in series [1] was 4. The LD50 in series [2] came to 453 mg/kg. Also, the “Phytotoxicity: Soy” value in the series on Soy is listed as 2. In addition, the “Phytotoxicity: Bean” value in the series with Bean is given as 1. The “Phytotoxicity: Corn” value in the series with Corn was found to be 1. Besides, the “Phytotoxicity: Tom” value with Tom was 1. In addition, the “Phytotoxicity: Cotton” value with Cotton was found to be 1.
In the case of `CN(SN(C)C(=O)Oc1cccc2c1OC(C)(C)C2)C(=O)ON=C1CSCCS1` [XXIV, N-[2-O-(N-methylcarbamoyl)oximino-1,4-dithiane]N-[2,3-dihydro-2,2-dimethyl-7-(N-methylcarbamoyloxy)benzofuran]sulfide], the “Biological Activity: Nem” value in series [1] worked out at 5. Moreover, the LD50 in series [2] is 20 mg/kg. The “Phytotoxicity: Soy” value with Soy was 2. Besides, in the series with Bean, the “Phytotoxicity: Bean” value is 1. Besides, the “Phytotoxicity: Corn” value in the series on Corn is on record as 1. In addition, the “Phytotoxicity: Tom” value with Tom is listed as 1. In the series on Cotton, the “Phytotoxicity: Cotton” value was found to be 2.
For the molecule `C#CCOc1ccccc1OC(=O)N(C)SN(C)C(=O)ON=C(C)SC` [XXXIX], the “Biological Activity: Nem” value in series [1] amounted to 3. Also, the 50% lethal dose (LD50) in series [2] amounted to 160 mg/kg. In addition, the “Phytotoxicity: Soy” value with Soy was 2. The “Phytotoxicity: Bean” value with Bean is 1. Moreover, the “Phytotoxicity: Corn” value in the series with Corn came out at 1. For the same molecule, the “Phytotoxicity: Tom” value in the series on Tom is reported as 1. For the same molecule, the “Phytotoxicity: Cotton” value in the series on Cotton is 2.
Regarding `CCCCCCCCCc1ccc(OC(=O)N(C)SN(C)C(=O)ON=C(C)SC)cc1` [XXXI], in series [1], the “Biological Activity: Nem” value was 5. Besides, in series [2], the LD50 is > 640 mg/kg. The “Phytotoxicity: Soy” value with Soy stood at 1. The “Phytotoxicity: Bean” value in the series on Bean is on record as 1. The “Phytotoxicity: Corn” value in the series on Corn is on record as 1. Besides, in the series on Tom, the “Phytotoxicity: Tom” value was found to be 1. Besides, the “Phytotoxicity: Cotton” value in the series on Cotton stood at 1.
